{"source": "patent US20160051560A1", "about": "“TREATMENTS INVOLVING ESLICARBAZEPINE OR ESLICARBAZEPINE ACETATE” (BIAL - PORTELA & Cª, S.A., priority 2013, published 2016)", "key": {"[1]": {"tested_on": "patients with acute manic (including mixed) episode, bipolar I disorder", "assay": "Study BIA-2093-203: 3-week double-blind, randomised, placebo-controlled, dose-titration study in acute mania", "assay_type": "in vivo, human", "settings": "for YMRS score absolute change from V2 (1 Day) to V7 (21 Days), Mean ± SD / YMRS score absolute change from V2 (1 Day) to V7 (21 Days), Median (range): ITT", "procedure": "Two 3-week multicentre, double-blind, randomised, placebo-controlled studies in acute mania (study BIA-2093-203: dose titrated by response, eslicarbazepine acetate (ESL) 600-1800 mg or 800-2400 mg, once-daily; study BIA-2093-204: fixed doses of 600, 1200 and 1800 mg, once-daily) were followed by a recurrence prevention study consisting of a 2-week open-label period (900 mg, once-daily) continued by a double-blind, parallel-group, fixed dose (300, 900 and 1800 mg, once-daily) period for a minimum of 6 months. The primary endpoint was change in Young Mania Rating Scale (YMRS) in studies BIA-2093-203 and BIA-2093-204, and the proportion of no worsening patients in the Clinical Global Impressions-Bipolar Version (CGI-BP) in study BIA-2093-205.\nStudy BIA-2093-203 (EudraCT No 2005-002131-27) followed a multicentre, double-blind, randomised, parallel-group, placebo-controlled, dose-titration design.\nThis study was conducted at 23 centres across Europe. Patients were randomised (3:3:2) to one of the following treatment groups: (1) ESL starting with 800 mg once daily (QD) and up-titrated in 800 mg steps until 2400 mg QD (maximum dose) according to clinical response, (2) ESL starting with 600 mg QD and up-titrated in 600 mg steps until 1800 mg QD (maximum dose) according to clinical response, and (3) Placebo QD. Patients were followed for up to 3 weeks. The study schedule consisted of a screening visit (V1), randomisation visit (V2, Day 1), and subsequent visits to evaluate clinical response (V3, Day 4; V4, Day 7; V5, Day 10; V6, Day 14 and V7, Day 21). In patients showing no improvement of symptoms, the dose of study medication was increased every 3 days until the maximum doses were reached. […] At the end of the 3-week treatment period, patients who responded to treatment had the option of entering the recurrence prevention study (Study BIA-2093-205).\nStudies BIA-2093-203 and BIA-2093-204 enrolled patients with ages ≧18 years, currently displaying an acute manic (including mixed) episode and with a documented diagnosis of bipolar I disorder according to the DSM-IV criteria (2). Eligible patients should have a Young Mania Rating Scale (YMRS) total score ≧20, with symptoms of the current manic episode starting within two weeks prior to randomization. Patients were excluded if they had history of schizophrenia or schizoaffective disorder, psychotic features or rapid cycling. Patients were also excluded if they were treated with carbamazepine, oxcarbazepine or a depot-neuroleptic. Previous treatment with ESL or history of unresponsiveness, intolerance or hypersensitivity to other dibenzazepine compounds (carbamazepine, oxcarbazepine or licarbazepine) also constituted criteria for exclusion. Patients with clinical relevant risk of harm to self or others and history of substance abuse were also excluded. Women were excluded if they were pregnant or breast-feeding, or if of childbearing potential they were unable to use double-barrier contraception.\nThe following validated instruments were used: YMRS (20), the Clinical Global Impressions-Bipolar Version (CGI-BP) scale (21) and the Montgomery-Åsberg Depression Rating Scale (MADRS) (22). The YMRS score is the sum of 11 scoring items, ranging from 0 to 60 points; higher scores indicate higher mania symptomatology (20). The CGI-BP scale measures severity and treatment-related improvement in mania, depression and overall illness categories. It comprises 3 scales: severity of illness (1—normal to 7—very severely ill, in which 3—mildly ill was used as cut-off value for statistical analysis), change from preceding phase and worst phase (1—very much improved to 7—very much worse, and 8—not applicable) (21). The MADRS score is calculated as the sum of the 10 scoring items, ranging from 0 to 60 points: higher scores indicate higher depression symptomatology (22). […]"}, "[2]": {"tested_on": "patients with acute manic (including mixed) episode, bipolar I disorder", "assay": "Adverse events, Studies BIA-2093-203 and BIA-2093-204 together (safety population)", "assay_type": "in vivo, human", "procedure": "Medical history and demographic information was obtained at the screening visit. A complete physical and neurological examination was performed at screening, V7 or early discontinuation (EDV), V8 and post-study visit (PSV). Vital signs (pulse rate and blood pressure) were determined at every visit. […] Clinically significant abnormalities in laboratory tests, vital signs or 12-lead ECG were considered as AEs.\nSafety was evaluated based on the occurrence of AEs. AEs were documented by the investigator with reference to intensity, dates of occurrence and resolution, outcome and relation to the treatment (causality). Furthermore, each AE was classified as being serious or non-serious. All patients with AEs were followed until their resolution. AEs were coded according to the Medical Dictionary for Regulatory Activities (MedDRA).\nThree study populations were defined for the statistical analyses: safety, intent to treat (ITT), and per protocol (PP). The safety population consisted of all patients who received at least one dose of investigational product. The ITT population consisted of all randomised patients who had at least one post-baseline efficacy assessment. The PP population consisted of all patients who complied with the study protocol without major deviations."}, "[3]": {"settings": "leading to a better tolerability profile; cited from earlier work"}, "[4]": {"settings": "ESL 600 mg (600-1800 mg QD titrated), n = 63"}, "[5]": {"settings": "ESL 800 mg (800-2400 mg QD titrated), n = 57"}, "[6]": {"settings": "ESL 800 mg, n = 57, only study 203"}, "[7]": {"settings": "ESL 600 mg, n = 72, Studies 203 and 204"}}}
{"molecule": "CC(=O)O[C@H]1Cc2ccccc2N(C(N)=O)c2ccccc21", "note": "[ESL, (S)-10-acetoxy-10,11-dihydro-5H-dibenz[b,f]azepine-5-carboxamide]", "values": [{"measurement": "MADRS scores under treatment with ESL as compared to placebo", "setting": "[1]; ANCOVA showed no significant difference between the treatment groups at visit 7", "value": "apparent improvement"}, {"measurement": "absolute difference between ESL treatment group and placebo for the YMRS total score", "setting": "[1]; ESL 600 mg", "value": 2.2}, {"measurement": "YMRS score absolute change from V2 (1 Day) to V7 (21 Days), Mean ± SD", "setting": "[1]; [4]", "value": "−12.2 ± 7.9"}, {"measurement": "YMRS score absolute change from V2 (1 Day) to V7 (21 Days), Median (range)", "setting": "[1]; [4]", "value": "−14.0 (−25.0, 14.0)"}, {"measurement": "CGI-BP score changes for mania and overall bipolar illness compared to placebo", "setting": "[1]; ESL 600 mg group, from worst phase only", "value": "significant improvement"}, {"measurement": "absolute difference between ESL treatment group and placebo for the YMRS total score", "setting": "[1]; ESL 800 mg", "value": 4.0}, {"measurement": "YMRS score absolute change from V2 (1 Day) to V7 (21 Days), Mean ± SD", "setting": "[1]; [5]", "value": "−14.1 ± 8.9"}, {"measurement": "YMRS score absolute change from V2 (1 Day) to V7 (21 Days), Median (range)", "setting": "[1]; [5]", "value": "−16.0 (−33.0, 22.0)"}, {"measurement": "CGI-BP score changes for mania and overall bipolar illness compared to placebo", "setting": "[1]; ESL 800 mg group, from preceding and worst phase", "value": "significant improvement"}, {"measurement": "proportion of patients in V7 classified as normal (CGI-BP severity of illness scale) vs placebo", "setting": "[1]; ESL 800 mg group, mania and overall bipolar illness", "value": "significant differences"}, {"measurement": "Any Adverse Events", "setting": "[1]; [6]", "value": "29 (50.9) Number (%) of patients"}, {"measurement": "Diarrhoea", "setting": "[1]; [6]", "value": "2 (3.5) Number (%) of patients"}, {"measurement": "Dizziness", "setting": "[1]; [6]", "value": "5 (8.8) Number (%) of patients"}, {"measurement": "Headache", "setting": "[1]; [6]", "value": "5 (8.8) Number (%) of patients"}, {"measurement": "Nausea", "setting": "[1]; [6]", "value": "4 (7.0) Number (%) of patients"}, {"measurement": "Paraesthesia oral", "setting": "[1]; [6]", "value": "0 (0.0) Number (%) of patients"}, {"measurement": "Somnolence", "setting": "[1]; [6]", "value": "1 (1.8) Number (%) of patients"}, {"measurement": "Vomiting", "setting": "[1]; [6]", "value": "2 (3.5) Number (%) of patients"}, {"measurement": "reduction in YMRS total score as compared with placebo, statistical significance", "setting": "[1]; ESL 600-1800 mg and ESL 800-2400 mg groups", "value": "None of the treatment groups showed a reduction in YMRS total score as compared with placebo that was statistically significant"}, {"measurement": "proportion of patients in full remission (YMRS score <12) at V7 compared to the placebo group", "setting": "[1]; ESL 800-2400 mg group", "value": "significantly higher proportion of patients were in full remission"}, {"measurement": "response rate (≧50% improvement or <12 points in the YMRS score)", "setting": "[1]; ESL 800-2400 mg group", "value": 66.7, "unit": "%"}, {"measurement": "reduction in YMRS total score", "setting": "[1]; ESL 800-2400 mg vs placebo −10.3 (p=0.0523)", "value": "−14.2"}, {"measurement": "serious AE: leukopenia and hyponatremia", "setting": "[2]; ESL 600 mg", "value": 1, "unit": "case"}, {"measurement": "Any Adverse Events", "setting": "[2]; [7]", "value": "38 (52.8) Number (%) of patients"}, {"measurement": "Diarrhoea", "setting": "[2]; [7]", "value": "8 (11.1) Number (%) of patients"}, {"measurement": "Dizziness", "setting": "[2]; [7]", "value": "7 (9.7) Number (%) of patients"}, {"measurement": "Headache", "setting": "[2]; [7]", "value": "8 (11.1) Number (%) of patients"}, {"measurement": "Nausea", "setting": "[2]; [7]", "value": "2 (2.8) Number (%) of patients"}, {"measurement": "Paraesthesia oral", "setting": "[2]; [7]", "value": "0 (0.0) Number (%) of patients"}, {"measurement": "Somnolence", "setting": "[2]; [7]", "value": "2 (2.8) Number (%) of patients"}, {"measurement": "Vomiting", "setting": "[2]; [7]", "value": "4 (5.6) Number (%) of patients"}, {"measurement": "incidence of treatment-related AEs", "setting": "[2]; studies BIA-2093-203 and BIA-2093-204, comparable between treatment groups", "value": "< 35 % of patients"}, {"measurement": "production of toxic metabolites compared to carbamazepine", "setting": "[3]", "value": "reduced production of toxic metabolites"}]}
